From US20240174684A1, “INHIBITORS OF cGAS ACTIVITY AS THERAPEUTIC AGENTS” (BELLBROOK LABS, LLC, priority 2021, published 2024) come the findings set out here.

The term solubility (kinetic) denotes the concentration staying in solution when a stock, usually in DMSO, is diluted into the medium. For orientation: IC50 means the concentration at which inhibition is half-maximal.

Values after ≈ are worked out from the molar mass of the structure shown. Read-outs that look alike come from different tables or passages of the source.

The test system of data set [1] is MDCK cells expressing human MDR1 (P-glycoprotein). As to the kind of experiment: MDCK-MDR1 permeability A→B. In kind it is in vitro ADME, Canine. The gist of the method: (§1)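 Permeability measured apical-to-basolateral in MDCK cells expressing human MDR1, reported as binned ranges in cm/s×10^−6. Metabolic stability determined as half-life in mouse and human hepatocytes, reported as binned ranges in minutes.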

Data set [2] in a line: Metabolic stability in mouse hepatocytes. Format: in vitro ADME. The note with it: read-out: Mouse MS Stability t1/2. As for the experimental part:
(§2) ADME studies: Compound A and the compounds of the disclosure were tested for aqueous solubility (KSOL), metabolic stability (human and mouse […]) and permeability (Caco-2 and/or MDR1-MDCK cells) to provide an initial indication of oral bioavailability.
(§3) The favorable physicochemical properties are reflected in promising results in in vitro ADME tests. […] Metabolic stability, which was routinely measured with mouse and human hepatocytes, is outstanding, with t, greater than 2 hours for all of the compounds of the disclosure in which it has been measured. Cell permeability was measured using MDCK cells expressing human MDR1 (P-glycoprotein) to assess passive permeability as well as active transport out of the cell. […] Numerous compounds in Table 1 meet these permeability criteria, which is consistent with their design for TPSA <140 Å^2 and increased lipophilicity.
(§4) The MDCK-MDR1 permeability A ->B is shown in Table 2 below, where A represents 5-10 cm/s×10^−6; B represents 1-5 cm/s×10^−6; and C represents <1 cm/ss×10^−6. The metabolic stability half time, in both mouse and human hepatocytes, is also shown in Table 2 below, where A′ represents 100-200 minutes; B′ represents 200-300 minutes; and C′ represents >300 minutes.

A short description of data set [3]: Metabolic stability in human hepatocytes. Format: in vitro ADME. Particulars: read-out: Human MS Stability t1/2. Here is the method: as §2, §3, §4
Data set [4] in a line: Kinetic aqueous solubility (KSOL) in PBS, pH 7.4. Format: physicochemical. The note with it: aqueous buffer, kinetic from dmso stock. Here is the method:
as §2, §3

Data set [5] has as its target cGAS (Homo sapiens, UniProt Q8N884). As to the kind of experiment: Transcreener cGAS enzymatic assay (FP). In kind it is biochemical. In outline: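 Human cGAS (30 nm) inhibition, 60 min reactions, FP read-out, standard conditions 100 μM ATP and GTP plus 62.5 nM bp ISD. Also run at 1 mM ATP and GTP (physiological), with 200 μM MnCl2, and with mouse cGAS under standard conditions; IC50 reported.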

Data set [6] concerns IFNβ production in THP-1 cells. As to the kind of experiment: IFNβ ELISA in THP-1 cells. In kind it is cell-based, human. The note with it: Homo sapiens; THP-1 cells. In outline: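 THP-1 cells stimulated with dsDNA or cGAMP (STING activation bypassing cGAS) in the presence of compound; IFNβ secreted into medium quantified by ELISA. IC50 values reported in potency bins.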
A general note: ELISA stands for enzyme-linked immunosorbent assay.

The subject of data set [7] is MDR1 (P-glycoprotein). As to the kind of experiment: MDCK-MDR1 permeability A→B. In kind it is in vitro ADME, Canine. The note with it: dog; MDCK cells expressing human MDR1, A→B; read-out: MDCK-MDR Permeability A→B. In outline:
as §1

For data set [8], the system named is IFN-β production in PBMCs. As to the kind of experiment: IFNβ ELISA in human primary PBMCs. Format: cell-based. Particulars: PBMC. The source says:
Cellular assays: The human monocyte cell line THP-1 and human primary PBMCs were used to evaluate the cellular activity of compounds with good biochemical potency. These cells produce a robust cGAS/STING-dependent type I IFN response when stimulated with dsDNA and other pathogen-associated molecular patterns, which was detected using a standard ELISA for IFNβ (R&D Systems). The TBK1 inhibitor, BX-795, which acts downstream of cGAS/STING, was used as a probe.
The ICso values for IFNB ELISA stimulated with THP-1, PBMC, DNA, and cGAMP were determined for several exemplary compounds of the invention, and are provided in Table 3 where A represents <1 μM; B represents 1-2.5 μM; C represents 2.5-10 μM; D represents 10-20 μM; and E represents >20 μM.
The reporter gene assays were used to assess off-target activity with IRF30Luc (RIG-1) or NFKB (TLR4); CellTiter Glo (ATP levels) and Presto Blue (reducing equivalents) were used to assess cytotoxicity; all assays were performed in dose response mode. […] The inventors recently began using human PBMCs to assess cellular potency in a more physiologically relevant context.

The mark [9] stands for this setting: high ATP and GTP (1 mM) to mimic physiological conditions, read-out: IC50 FP Physiological.
[10] abbreviates: standard conditions: 100 μM ATP and GTP, 62.5 nM bp ISD, 60 minute reactions, read-out: IC50 FP Standard.

Sequence of cGAS (Q8N884 whole entry): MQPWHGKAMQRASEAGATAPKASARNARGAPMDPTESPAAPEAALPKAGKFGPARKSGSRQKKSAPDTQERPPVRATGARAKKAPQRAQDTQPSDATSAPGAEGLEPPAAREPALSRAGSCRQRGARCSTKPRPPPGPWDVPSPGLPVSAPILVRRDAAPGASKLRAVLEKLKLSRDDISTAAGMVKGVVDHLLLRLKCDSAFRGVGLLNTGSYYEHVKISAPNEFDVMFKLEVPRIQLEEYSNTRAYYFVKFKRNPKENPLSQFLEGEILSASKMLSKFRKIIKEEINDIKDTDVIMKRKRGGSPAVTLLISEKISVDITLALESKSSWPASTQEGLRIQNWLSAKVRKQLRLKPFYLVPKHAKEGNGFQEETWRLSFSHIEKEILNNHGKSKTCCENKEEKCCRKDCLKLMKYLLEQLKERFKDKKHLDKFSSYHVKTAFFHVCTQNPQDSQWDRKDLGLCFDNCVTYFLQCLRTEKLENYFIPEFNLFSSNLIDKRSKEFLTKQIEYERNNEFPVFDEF

In the case of `Cc1nc(N2C[C@@H](CC(=O)N(C)C3CCCC3)C[C@H]2C(=O)O)c2oc3ccccc3c2n1` [Compound 2, (2S,4R)-4-(2-(cyclopentyl(methyl)amino)-2-oxoethyl)-1-(2-methylbenzofuro[3,2-d]pyrimidin-4-yl)pyrrolidine-2-carboxylic acid], the “MDCK-MDR Permeability A→B” value in data set [1] is recorded as “C (C represents <1 cm/ss×10^−6)”. Further, the half-life in data set [2] and in data set [3] was > 5 h each time. In addition, the solubility (kinetic) in data set [4] is 506 µM (≈ 221 µg/mL). Further, the concentration for half-maximal inhibition (IC50) in data set [5] (setting [9]) was 500 to 1000 nM; in data set [5] (setting [10]), 50 to 100 nM; in data set [6], > 20000 nM.
For the molecule `Cc1nc(N2C[C@@H](CC(=O)Nc3ccc4[nH]ncc4c3)C[C@H]2C(=O)O)c2oc3ccccc3c2n1` [Compound 3, (2S,4R)-4-(2-((1H-indazol-5-yl)amino)-2-oxyethyl)-1-(2-methylbenzofuro[3,2-d]pyrimidin-4-yl)pyrrolidine-2-carboxylic acid], the “MDCK-MDR Permeability A→B” value in data set [1] was “C (C represents <1 cm/ss×10^−6)”. Moreover, the half-life in data set [2] is > 5 h. For the same molecule, in data set [4], the kinetic solubility was determined as 496 µM (≈ 233 µg/mL). Besides, the IC50 in data set [5] (setting [9]) is > 5000 nM; in data set [5] (setting [10]), 1000 to 10000 nM; in data set [6] it was 10000 to 20000 nM.
Regarding `COc1cc(NC(=O)C[C@H]2C[C@@H](C(=O)O)N(c3nc(C)nc4c3oc3ccccc34)C2)ccn1` [Compound 6, (2S,4R)-4-(2-((2-methoxypyridin-4-yl)amino)-2-oxoethyl)-1-(2-methylbenzofuro[3,2-d]pyrimidin-4-yl)pyrrolidine-2-carboxylic acid], in data set [1], the “MDCK-MDR Permeability A→B” value is “C (C represents <1 cm/ss×10^−6)”. In addition, the half-life in data set [2] and in data set [3] was > 5 h each time. For the same molecule, the solubility (kinetic) in data set [4] was found to be 496 µM (≈ 229 µg/mL). The IC50 in data set [5] (setting [9]) lay within 1000 to 5000 nM; in data set [5] (setting [10]) it was 50 to 100 nM; in data set [6] it was 2500 to 10000 nM.
As for `Cc1nc(N2C[C@@H](CC(=O)Nc3ccc(N4CCCCC4)cc3)C[C@H]2C(=O)O)c2oc3ccccc3c2n1` [Compound 7, (2S,4R)-1-(2-methylbenzofuro[3,2-d]pyrimidin-4-yl)-4-(2-oxo-2-((4-(piperidin-1-yl)phenyl)amino)ethyl)pyrrolidine-2-carboxylic acid], in data set [7], the Papp A→B fell in the range of 1 to 5 ×10⁻⁶ cm/s. Besides, the 50% inhibitory concentration (IC50) in data set [5] (setting [9]) fell in the range of 1000 to 5000 nM; in data set [5] (setting [10]), 200 to 1000 nM; in data set [6], 10000 to 20000 nM; in data set [8] it was 10000 to 20000 nM.
For the molecule `Cc1nc(N2C[C@@H](CC(=O)Nc3ccc(OC(F)(F)F)cc3)C[C@H]2C(=O)O)c2oc3ccccc3c2n1` [Compound 12, (2S,4R)-1-(2-methylbenzofuro[3,2-d]pyrimidin-4-yl)-4-(2-oxo-2-((4-(trifluoromethoxy)phenyl)amino)ethyl)pyrrolidine-2-carboxylic acid], the Papp A→B in data set [7] lay in the range of 5 to 10 ×10⁻⁶ cm/s. Also, the 50% inhibitory concentration (IC50) was > 5000 nM in data set [5] (setting [9]), 200 to 1000 nM in data set [5] (setting [10]), 1000 to 2500 nM in data set [6] and 2500 to 10000 nM in data set [8].
As for `Cc1nc(N2C[C@@H](CC(=O)Nc3cccc(Cl)c3)C[C@H]2C(=O)O)c2oc3ccccc3c2n1` [Compound 22, (2S,4R)-4-(2-((3-chlorophenyl)amino)-2-oxoethyl)-1-(2-methylbenzofuro[3,2-d]pyrimidin-4-yl)pyrrolidine-2-carboxylic acid], the Papp A→B in data set [7] was 1 to 5 ×10⁻⁶ cm/s. The IC50 in data set [5] (setting [9]) is 1000 to 5000 nM; in data set [5] (setting [10]), 100 to 200 nM; in data set [6], 2500 to 10000 nM; in data set [8], 10000 to 20000 nM.
Taken in the same sequence, the figures for `Cc1nc(N2C[C@@H](CC(=O)Nc3ccc(C(F)(F)F)cc3)C[C@H]2C(=O)O)c2oc3ccccc3c2n1` [Compound 24, (28.4R)-1-(2-methylbenzofuro[3,2-d]pyrimidin-4-yl)-4-(2-oxo-2-((4-(trifluoromethyl)phenyl)amino)ethyl)pyrrolidine-2-carboxylic acid] were 1 to 5 ×10⁻⁶ cm/s, 1000 to 5000 nM, 200 to 1000 nM, 10000 to 20000 nM and 10000 to 20000 nM.
In the case of `Cc1nc(N2C[C@@H](CC(=O)Nc3ccc4cnccc4c3)C[C@H]2C(=O)O)c2oc3ccccc3c2n1` [Compound 33, (2S,4R)-4-(2-(isoquinolin-6-ylamino)-2-oxoethyl)-1-(2-methylbenzofuro[3,2-d]pyrimidin-4-yl)pyrrolidine-2-carboxylic acid], the “MDCK-MDR Permeability A→B” value in data set [1] is listed as “C (C represents <1 cm/ss×10^−6)”. Further, the half-maximal inhibitory concentration (IC50) in data set [5] (setting [9]) fell in the range of 1000 to 5000 nM; in data set [5] (setting [10]), 100 to 200 nM; in data set [6], 2500 to 10000 nM; in data set [8], 10000 to 20000 nM.
With `Cc1nc(N2C[C@@H](CC(=O)Nc3ccc4ccncc4c3)C[C@H]2C(=O)O)c2oc3ccccc3c2n1` [Compound 34, (28.4R)-4-(2-(isoquinolin-7-ylamino)-2-oxoethyl)-1-(2-methylbenzofuro[3,2-d]pyrimidin-4-yl)pyrrolidine-2-carboxylic acid], the Papp A→B in data set [7] lay within 1 to 5 ×10⁻⁶ cm/s. Besides, the IC50 in data set [5] (setting [9]) was 200 to 500 nM; in data set [5] (setting [10]), < 50 nM; in data set [6], 2500 to 10000 nM; in data set [8] it was 2500 to 10000 nM.
On to `Cc1nc(N2C[C@@H](CC(=O)Nc3ccc4cccnc4c3)C[C@H]2C(=O)O)c2oc3ccccc3c2n1` [Compound 35, (28,4R)-1-(2-methylbenzofuro[3,2-d]pyrimidin-4-yl)-4-(2-oxo-2-(quinolin-7-ylamino)ethyl)pyrrolidine-2-carboxylic acid], for which the Papp A→B in data set [7] lay in the range of 1 to 5 ×10⁻⁶ cm/s. The IC50 in data set [5] (setting [9]) is 500 to 1000 nM; in data set [5] (setting [10]), < 50 nM; in data set [6], 2500 to 10000 nM; in data set [8] it was 2500 to 10000 nM.
In the case of `Cc1nc(N2C[C@@H](CC(=O)Nc3ccc(-c4cccc(N)n4)cc3)C[C@H]2C(=O)O)c2oc3ccccc3c2n1` [Compound 42, (2S,4R)-4-(2-((4-(6-aminopyridin-2-yl)phenyl)amino)-2-oxoethyl)-1-(2-methylbenzofuro[3.2-d]pyrimidin-4-yl)pyrrolidine-2-carboxylic acid], the IC50 in data set [5] (setting [9]) was 500 to 1000 nM; in data set [5] (setting [10]), 50 to 100 nM; in data set [6], > 20000 nM; in data set [8], > 20000 nM.
Turning to `Cc1nc(N2C[C@@H](CC(=O)Nc3ccc(-c4cccnc4N)cc3)C[C@H]2C(=O)O)c2oc3ccccc3c2n1` [Compound 43, (28.4R)-4-(2-((4-(2-aminopyridin-3-yl)phenyl)amino)-2-oxoethyl)-1-(2-methylbenzofuro[3,2-d]pyrimidin-4-yl)pyrrolidine-2-carboxylic acid], the IC50 in data set [5] (setting [9]) was 500 to 1000 nM; in data set [5] (setting [10]), 100 to 200 nM; in data set [6], > 20000 nM; in data set [8] it was > 20000 nM.
In the case of `Cc1nc(N2C[C@@H](CC(=O)Nc3ccc(-c4cccc(O)c4)cc3)C[C@H]2C(=O)O)c2oc3ccccc3c2n1` [Compound 51, (2S,4R)-4-(2-((3′-hydroxy-[1,1′-biphenyl]-4-yl)amino)-2-oxoethyl)-1-(2-methylbenzofuro[3,2-d]pyrimidin-4-yl)pyrrolidine-2-carboxylic acid], the half-inhibitory concentration (IC50) is < 200 nM in data set [5] (setting [9]), < 50 nM in data set [5] (setting [10]), 10000 to 20000 nM in data set [6] and > 20000 nM in data set [8].
